Assay results published in PubChem BioAssay (NCI).
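These data come from cells grown in 96-well plates and exposed to compound for 48 hours at five concentrations. At the TGI there is no net growth.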

Key:
Assay in all cases: inhibition of tumour cell growth, NCI panel, 48 h
UACC-257 melanoma = test system: UACC-257 melanoma
KM12 colon = test system: KM12 colon
A549 NSCLC = test system: A549 NSCLC
K-562 leukemia = test system: K-562 leukemia
COLO 205 colon = test system: COLO 205 colon
SK-MEL-28 melanoma = test system: SK-MEL-28 melanoma
ACHN renal = test system: ACHN renal
SW-620 colon = test system: SW-620 colon
NCI-H522 lung = test system: NCI-H522 lung
M14 melanoma = test system: M14 melanoma

SMILES | TGI (UACC-257 melanoma) | TGI (KM12 colon) | TGI (A549 NSCLC) | TGI (K-562 leukemia) | TGI (COLO 205 colon) | TGI (SK-MEL-28 melanoma) | TGI (ACHN renal) | TGI (SW-620 colon) | TGI (NCI-H522 lung) | TGI (M14 melanoma)
CNC(=O)[C@H](Cc1ccccc1)NC(=O)N(CCC#N)CCN(C(=O)N[C@@H](Cc1ccccc1)C(=O)OC)c1ccccc1 | > 100 µM | > 100 µM | > 100 µM | > 100 µM | > 100 µM | > 100 µM | > 100 µM | > 100 µM | > 100 µM | > 100 µM
CC(C)(C)OC(=O)Cn1ncn(NC(=O)Cc2ccccc2)c1=S | > 10 µM | > 10 µM | > 10 µM | > 10 µM | > 10 µM | > 10 µM | > 10 µM | > 10 µM | > 10 µM | > 10 µM
COC(=O)c1ccccc1C1CN=NC12Cc1ccc(C)cc1C2=O (stereo not given) | > 100 µM | > 100 µM | > 100 µM | > 100 µM | > 100 µM | > 100 µM | > 100 µM | > 100 µM | > 100 µM | > 100 µM
Nc1cccc(-c2cc(=O)c3cc4c(cc3[nH]2)OCO4)c1 | > 100 µM | > 21.6 µM | > 47.8 µM | > 100 µM | 5.93 µM | > 100 µM | > 100 µM | > 100 µM | 0.881 µM | > 79.6 µM
CCOC(=O)C1=C(O)CC(=O)N=C1N1CCCC1 | > 100 µM | > 100 µM | > 100 µM | > 100 µM | > 100 µM | > 100 µM | > 100 µM | > 100 µM | > 100 µM | > 100 µM
CC1(C)N=C(C(N)=O)c2[nH]cnc2N1 | > 100 µM | > 100 µM | > 100 µM | > 100 µM | > 100 µM | > 100 µM | > 100 µM | > 100 µM | > 100 µM | > 100 µM
C/C(=C\C(=O)Nc1ccc2n[nH]nc2c1)Nc1ccc2n[nH]nc2c1 | > 100 µM | > 100 µM | > 100 µM | > 100 µM | > 100 µM | > 100 µM | > 100 µM | > 100 µM | > 100 µM | > 100 µM
O=C(/C=C/c1ccc(-c2ccccc2)cc1)NCc1ccc(C(=O)NCCc2ccccc2)cc1 | > 100 µM | > 100 µM | > 100 µM | > 100 µM | > 100 µM | > 100 µM | > 100 µM | > 100 µM | > 100 µM | > 100 µM
Clc1ccc(-c2cn3c(nc4ccccc43)c(-c3ccccc3)n2)cc1 | > 100 µM | > 100 µM | 51.4 µM | > 100 µM | > 100 µM | > 100 µM | 95.9 µM | > 100 µM | 43.3 µM | > 87.4 µM
O/N=C\c1c2c(cc3c1CCC3)CCC2 | > 100 µM | > 100 µM | > 100 µM | > 100 µM | > 100 µM | > 100 µM | > 100 µM | > 100 µM | > 100 µM | > 100 µM
Nc1nc(N)c2nc(CN(C=O)c3ccc(C(=O)O)cc3)cnc2n1 | > 100 µM | > 100 µM | > 100 µM | > 100 µM | > 100 µM | > 100 µM | > 100 µM | > 100 µM | > 100 µM | > 100 µM
COC(=O)c1ccccc1CC1Cc2c(C)ccc(C)c2C1=O (stereo not given) | 48.2 µM | 76.1 µM | > 100 µM | > 100 µM | 34.3 µM | > 100 µM | > 100 µM | > 100 µM | 58.1 µM | > 100 µM
C[N+](C)(CCNc1ccc(NCC[N+](C)(C)Cc2ccc([N+](=O)[O-])cc2)c2c1C(=O)c1c(O)ccc(O)c1C2=O)Cc1ccc([N+](=O)[O-])cc1 | > 50 µM | 14.5 µM | > 50 µM | > 5 µM | > 50 µM | > 50 µM | > 50 µM | > 50 µM | > 50 µM | > 50 µM
CCOc1ccc(C2=NN(CC)C(=O)C(C3C(=O)N(c4ccccc4)N=C3C)C2)cc1 (stereo not given) | > 100 µM | > 100 µM | > 100 µM | > 100 µM | > 100 µM | > 100 µM | > 100 µM | > 100 µM | > 100 µM | > 100 µM
CC(=O)OC1CCn2c1nc1cc([N+](=O)[O-])c(C)cc12 (stereo not given) | > 100 µM | > 100 µM | > 100 µM | > 100 µM | > 100 µM | > 100 µM | > 100 µM | > 100 µM | > 100 µM | > 100 µM
Cc1sc(/N=C/C2=C(O)CC(C)(C)CC2=O)nc1-c1ccccc1 | > 100 µM | > 100 µM | > 100 µM | > 100 µM | > 100 µM | > 100 µM | > 100 µM | > 100 µM | > 100 µM | > 100 µM
O=C1NC(N2CCCC(CO)C2)=N/C1=C\c1cccs1 (stereo not given) | > 100 µM | > 100 µM | > 100 µM | > 100 µM | > 100 µM | > 100 µM | > 100 µM | > 100 µM | > 100 µM | > 100 µM
NC(=S)NNCC(=O)CC(O)(C(F)(F)F)C(F)(F)Cl (stereo not given) | > 100 µM | > 100 µM | > 100 µM | > 100 µM | > 100 µM | > 100 µM | > 100 µM | > 100 µM | > 100 µM | > 100 µM
CC(=O)O[C@H]1[C@@H](N2CCOCC2)C[C@H]2[C@@H]3CC=C4C[C@@H](N5CCCC5)CC[C@]4(C)[C@H]3CC[C@@]21C | > 100 µM | > 100 µM | > 100 µM | > 100 µM | > 100 µM | > 100 µM | > 100 µM | > 100 µM | > 100 µM | > 100 µM
